Reference: US7501425B1, “Bicyclic pyrimidines and bicyclic 3,4-dihydropyprimidines as inhibitors of cellular proliferation” (Warner Lambert Company, priority 1999, dated 2009)

Assays:
[1] = target: cdk2/cyclinE (Homo sapiens, UniProt P24941); test: Cyclin-dependent kinase assay cdk2/cyclinE; format: biochemical; conditions: for IC50: read-out: cdk2/E IC50; for inhibition at 40 µM: read-out: cdk2/E % Inhibition at 40 μM
Protocol: (§1) Cyclin-Dependent Kinase Assays (cdk2/cyclinE, cdk2/cyclinA, cdc2/cyclinB)
(§2) All components except the ATP were added to the wells, and the plate was placed on a plate mixer for 2 minutes. The reaction was begun by addition of [^32P]ATP, and the plate was incubated at 25° C. for 15 minutes. The reaction was terminated by addition of 0.1 mL of 20% TCA. The plate was kept at 4° C. for at least 1 hour to allow the substrate to precipitate. The wells were then washed five times with 0.2 mL of 10% TCA and ^32P incorporation determined with a beta plate counter (Wallac Inc., Gaithersburg, Md.).

[2] = target: cdc2/cyclinB (Homo sapiens, UniProt P06493); test: Cyclin-dependent kinase assay cdc2/cyclinB (cdk1/B); format: biochemical
Sequence of cdc2/cyclinB (P06493 whole entry, species assumed): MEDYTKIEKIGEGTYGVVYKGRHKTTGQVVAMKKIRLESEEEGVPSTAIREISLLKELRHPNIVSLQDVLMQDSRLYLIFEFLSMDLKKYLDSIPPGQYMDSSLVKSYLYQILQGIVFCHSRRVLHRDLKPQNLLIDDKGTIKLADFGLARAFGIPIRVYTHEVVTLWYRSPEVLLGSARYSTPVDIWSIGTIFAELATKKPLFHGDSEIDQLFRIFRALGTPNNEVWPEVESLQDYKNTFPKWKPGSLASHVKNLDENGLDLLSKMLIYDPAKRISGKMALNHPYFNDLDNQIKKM
Sequence of cdc2/cyclinB (P14635 whole entry partner, species assumed): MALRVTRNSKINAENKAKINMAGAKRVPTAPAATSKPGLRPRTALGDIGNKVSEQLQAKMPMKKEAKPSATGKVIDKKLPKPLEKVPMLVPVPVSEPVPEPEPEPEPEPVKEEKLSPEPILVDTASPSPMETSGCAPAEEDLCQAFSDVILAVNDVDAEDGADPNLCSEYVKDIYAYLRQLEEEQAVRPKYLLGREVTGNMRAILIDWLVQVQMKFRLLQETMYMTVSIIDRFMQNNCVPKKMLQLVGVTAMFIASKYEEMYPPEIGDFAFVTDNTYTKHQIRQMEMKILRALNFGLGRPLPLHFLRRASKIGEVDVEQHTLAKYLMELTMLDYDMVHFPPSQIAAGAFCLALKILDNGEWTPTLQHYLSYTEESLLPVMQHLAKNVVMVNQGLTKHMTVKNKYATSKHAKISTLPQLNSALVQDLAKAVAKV
Protocol: as §1, §2

[3] = target: T1, c-Src (Homo sapiens, UniProt P12931); test: c-Src kinase assay; format: biochemical; conditions: 5 μM ATP, poly GluTyr substrate
T1 construct: made in house; host or cells: baculovirus infected insect cells
T1 sequence (P12931 whole entry, species assumed): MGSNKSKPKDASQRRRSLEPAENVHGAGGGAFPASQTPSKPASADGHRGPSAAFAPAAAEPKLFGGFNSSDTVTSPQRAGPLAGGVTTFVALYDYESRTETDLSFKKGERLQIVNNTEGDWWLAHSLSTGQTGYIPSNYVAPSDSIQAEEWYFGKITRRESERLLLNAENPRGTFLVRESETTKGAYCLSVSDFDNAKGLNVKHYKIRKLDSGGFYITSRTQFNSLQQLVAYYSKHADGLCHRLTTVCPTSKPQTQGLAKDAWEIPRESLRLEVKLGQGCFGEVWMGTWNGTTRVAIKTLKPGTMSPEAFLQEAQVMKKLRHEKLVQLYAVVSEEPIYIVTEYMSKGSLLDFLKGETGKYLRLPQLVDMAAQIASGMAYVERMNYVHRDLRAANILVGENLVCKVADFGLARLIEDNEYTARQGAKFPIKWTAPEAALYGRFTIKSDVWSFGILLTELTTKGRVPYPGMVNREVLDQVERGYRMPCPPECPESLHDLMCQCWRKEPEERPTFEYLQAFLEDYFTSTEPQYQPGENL
Protocol: Several of the invention compounds have been evaluated in a standard assay to measure their ability to inhibit cellular Src protein kinase (c-Src). […] The assay was carried out as follows:
c-Src kinase was purified from baculovirus infected insect cell lysates using an antipeptide monoclonal antibody directed against the N-terminal amino acids (amino acids 2-17) of c-Src. The antibody, covalently linked to 0.65 μm latex beads, was added to a suspension of insect cell lysis buffer comprised of 150 mM NaCl, 50 mM Tris pH 7.5, 1 mM DTT, 1% NP-40, 2 mM EGTA, 1 mM sodium vanadate, 1 mM PMSF, 1 μg/mL each of leupeptin, pepstatin, and aprotinin. Insect cell lysate containing c-Src protein was incubated with these beads for 3 to 4 hours at 4° C. with rotation. At the end of the lysate incubation, the beads were rinsed three times in lysis buffer, resuspended in lysis buffer containing 10% glycerol, and frozen. These latex beads were thawed, rinsed three times in assay buffer (40 mM Tris, pH 7.5, 5 mM […]) and suspended in the same buffer. In a Millipore 96-well plate with a 0.65 μm polyvinylidine membrane bottom were added the reaction components: 10 μL c-Src beads, 10 μL of 2.5 mg/mL poly GluTyr substrate, 5 μM ATP containing 0.2 μCi labeled ^32P-ATP, 5 μL DMSO containing inhibitors or as a solvent control, and buffer to make the final volume 125 μL. The reaction was started at room temperature by addition of the ATP and quenched 10 minutes later by the addition of 125 μL of 30% TCA, 0.1 M sodium pyrophosphate for 5 minutes on ice. The plate was then filtered and the wells washed with two […] aliquots of 15% TCA, 0.1 M pyrophosphate. The filters were then punched, counted in a liquid scintillation counter, and the data examined for inhibitory activity in comparison to a known inhibitor such as erbstatin. The method is also described in J. Med. Chem., 1994; 37:598-609. Tables 5 and 6 list c-Src inhibitory concentrations (IC50) for representative invention compounds.

[4] = target: cdk4/D (Homo sapiens, UniProt P11802); test: Cyclin-Dependent Kinase 4 (cdk4) enzyme assay, 32P incorporation; format: biochemical; conditions: for IC50: 25 μM ATP, retinoblastoma substrate
Sequence of cdk4/D (P11802 whole entry, species assumed): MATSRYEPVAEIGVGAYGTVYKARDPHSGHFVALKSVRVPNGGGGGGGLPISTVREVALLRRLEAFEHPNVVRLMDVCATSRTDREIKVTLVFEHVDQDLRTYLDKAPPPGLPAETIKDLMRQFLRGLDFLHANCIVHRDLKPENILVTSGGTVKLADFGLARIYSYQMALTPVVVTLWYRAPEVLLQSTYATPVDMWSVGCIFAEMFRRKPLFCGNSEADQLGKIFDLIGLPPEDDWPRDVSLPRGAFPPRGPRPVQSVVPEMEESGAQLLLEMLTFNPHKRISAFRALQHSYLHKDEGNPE
Sequence of cdk4/D (P24385 whole entry partner, species assumed): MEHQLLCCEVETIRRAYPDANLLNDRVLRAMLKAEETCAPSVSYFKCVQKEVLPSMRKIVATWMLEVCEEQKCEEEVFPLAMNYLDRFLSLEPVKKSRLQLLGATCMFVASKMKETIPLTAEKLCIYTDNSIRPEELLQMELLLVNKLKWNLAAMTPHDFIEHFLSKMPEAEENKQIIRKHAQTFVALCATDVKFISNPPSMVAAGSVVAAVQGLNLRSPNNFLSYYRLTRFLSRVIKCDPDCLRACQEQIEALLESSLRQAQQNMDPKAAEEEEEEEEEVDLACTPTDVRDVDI
Protocol: A typical assay, for instance, measures inhibitory activity against the cyclin D dependent kinase 4 enzyme (cdk4/D). […] The cdk4 assay was carried out as follows.
Cyclin-Dependent Kinase 4 (cdk4) Assay
Enzyme assays for IC50 determinations (Tables 1 and 2) and kinetic evaluation were performed in 96 well filter plates (Millipore MADVN6550). The total volume was 0.1 mL containing a final concentration of 20 mM TRIS (tris[hydroxymethyl]aminomethane), at pH 7.4, 50 mM NaCl, 1 mM dithiothreitol, 10 mM MgCl2, 25 μM ATP containing 0.25 μCi of [^32P]ATP, 20 ng of cdk4, 1 μg of retinoblastoma, and appropriate dilutions of a compound of the present invention. All components except the ATP were added to the wells, and the plate was placed on a plate mixer for 2 minutes. The reaction was started by adding [^32P]ATP and the plate was incubated at 25° C. for 15 minutes. The reaction was terminated by addition of 0.1 mL of 20% trichloroacetic acid (TCA). The plate was kept at 4° C. for at least 1 hour to allow the substrate to precipitate. The wells were then washed five times with 0.2 mL of 10% TCA and ^32p incorporation was determined with a beta plate counter (Wallac Inc., Gaithersburg. MD).

[5] = target: cdk2/cyclinA (Homo sapiens, UniProt P24941); test: Cyclin-dependent kinase assay cdk2/cyclinA; format: biochemical
Protocol: as §1, §2

[6] = target: T2, PDGF-β receptor tyrosine kinase (Mus musculus, UniProt P05622); test: PDGF receptor tyrosine kinase assay; format: biochemical; conditions: intracellular tyrosine kinase domain, SF9 lysate
T2 construct: amplify a fragment of DNA that codes for the intracellular tyrosine kinase domain; made in house; host or cells: SF9 insect cells (baculovirus)
T2 sequence (P05622 599-961 limits assumed): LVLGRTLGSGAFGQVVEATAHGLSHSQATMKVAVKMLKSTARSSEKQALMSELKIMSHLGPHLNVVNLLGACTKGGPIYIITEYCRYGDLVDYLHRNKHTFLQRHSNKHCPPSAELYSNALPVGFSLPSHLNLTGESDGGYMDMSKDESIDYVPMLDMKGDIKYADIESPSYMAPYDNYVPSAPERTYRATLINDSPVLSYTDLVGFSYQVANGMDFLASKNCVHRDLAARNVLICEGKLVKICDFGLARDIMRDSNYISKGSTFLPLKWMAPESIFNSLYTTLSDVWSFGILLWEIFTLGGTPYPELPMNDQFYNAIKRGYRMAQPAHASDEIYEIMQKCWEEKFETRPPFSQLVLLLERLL
Protocol: The assays used to determine these activities were carried out as follows:
PDGF and FGF Receptor Tyrosine Kinase Assays
PCR primers were designed to amplify a fragment of DNA that codes for the intracellular tyrosine kinase domain. The fragment was inserted into a baculovirus vector, cotransfected with AcMNPV DNA, and the recombinant virus isolated. SF9 insect cells were infected with the virus to overexpress the protein, and the cell lysate was used for the assay. Assays were performed in 96-well plates (100 μL/incubation/well), and conditions were optimized to measure the incorporation of ^32P from γ^32P-ATP into a glutamate-tyrosine co-polymer substrate. Briefly, to each well was added 82.5 μL of incubation buffer containing 25 mM Hepes (pH 7.0), 150 mM NaCl, 0.1% Triton X-100, 0.2 mM PMSF, 0.2 mM Na3VO4, 10 mM MnCl2, and 750 μg/mL of Poly (4:1) glutamate-tyrosine followed by 2.5 μL of inhibitor and 5 μL of enzyme lysate (7.5 μg/μL FGF-TK or 6.0 μg/μL PDGF-TK) to initiate the reaction. Following a 10 minute incubation at 25° C., […] of γ^32P-ATP (0.4 μCi plus 50 μM ATP) was added to each well, and samples were incubated for an additional 10 minutes at 25° C. […] Nonspecific activity was defined as radioactivity retained on the filters following incubation of samples with buffer alone (no enzyme). […]

| Compound | IC50 [1] | IC50 [2] | IC50 [5] | inhibition at 40 µM [1] | melting point | also measured |
| --- | --- | --- | --- | --- | --- | --- |
| O=C1NCc2cnc(Nc3ccc(N4CCC(CCN5CCOCC5)CC4)cc3)nc2N1C1CCCC1 [Example 21] | 3000 nM | 36100 nM | 1370 nM |  |  | IC50 [3]: 1600 nM; IC50 [4]: 165 nM; IC50 [6]: 1100 nM |
| Cn1c(=O)ncc2cnc(Nc3ccc(-n4cccn4)cc3)nc21 [Example 47, 1-Methyl-7-[4-(pyrazol-1-yl)phenylamino]pyrimido[4,5-d]pyrimidin-2(1H)-one] |  |  |  | 41% | > 290 °C (dec.) |  |
| O=C1NCc2cnc(Nc3ccc(-n4cccc4)cc3)nc2N1C1CCCC1 [Example 14, 1-Cyclopentyl-7-[4-(pyrrol-1-yl)phenylamino]-3,4-dihydro-pyrimido[4,5-d]pyrimidin-2(1H)-one] |  |  |  | 38% | > 200 °C (dec.) |  |
| CN1CCN(c2ccc(Nc3ncc4cnc(=O)n(C)c4n3)cc2)CC1 [Example 45, 1-Methyl-7-[4-(4-methylpiperazin-1-yl)phenylamino]pyrimido[4,5-d]pyrimidin-2(1H)-one] |  |  |  | 16% | 259 to 260 °C (dec.) |  |
| CN1C(=O)NCc2cnc(Nc3ccc(N4CCC(O)CC4)cc3)nc21.O=C(O)C(F)(F)F [Example 29, 7-[4-(4-Hydroxypiperidin-1-yl)phenylamino]-1-methyl-3,4-dihydro-pyrimido[4,5-d]pyrimidin-2(1H)-one; Compound with trifluoroacetic acid] |  |  |  | 28% | 228 to 229 °C (dec.) |  |
| CN1CCN(c2ccc(Nc3ncc4c(n3)N(C3CC5CCC3C5)C(=O)NC4)cc2)CC1 (stereo not drawn) [Example 27, 1-Bicyclo[2.2.1]hept-2-yl-7-[4-(4-methylpiperazin-1-yl)phenylamino]-3,4-dihydro-pyrimido[4,5-d]pyrimidin-2(1H)-one (exo)] | 1100 nM | 9770 nM | 530 nM |  | 251 to 254 °C (dec.) | IC50 [4]: 770 nM |
| CC(C)N1C(=O)NCc2cnc(Nc3ccc(N4CCN(C)CC4)cc3)nc21 [Example 22, 1-Isopropyl-7-[4-(4-methylpiperazin-1-yl)phenylamino]-3,4-dihydro-pyrimido[4,5-d]pyrimidin-2(1H)-one] |  |  |  | 68% | 234 to 237 °C (dec.) | inhibition at 40 µM [2]: 25% |
| CC(C)N1C(=O)NCc2cnc(Nc3ccc(N4CCC(CCCN5CCOCC5)CC4)cc3)nc21 [Example 26, 1-Isopropyl-7-{4-[4-(3-(morpholin-1-yl)propyl)piperidin-1-yl]phenylamino}-3,4-dihydro-pyrimido[4,5-d]pyrimidin-2(1H)-one] | 27000 nM | > 40000 nM | 6460 nM |  | 203 to 205 °C (dec.) |  |
| O=C1NCc2cnc(Nc3ccc(-n4cccn4)cc3)nc2N1C1CCCC1 [Example 12, 1-Cyclopentyl-7-[4-(pyrazol-1-yl)phenylamino]-3,4-dihydro-pyrimido[4,5-d]pyrimidin-2(1H)-one] | 4600 nM | 12200 nM | 1330 nM |  |  | IC50 [4]: 1800 nM |
| CN1CCN(c2ccc(Nc3ncc4c(n3)N(C)C(=O)NC4)cc2)CC1.O=C(O)C(F)(F)F [Example 28, 1-Methyl-7-[4-(4-methylpiperazin-1-yl)phenylamino]-3,4-dihydro-pyrimido[4,5-d]pyrimidin-2(1H)-one; compound with trifluoroacetic acid] |  |  |  | 22% | 234 to 235 °C (dec.) | inhibition at 40 µM [4]: 15% |
| C=CCn1c(=O)c2cnc(Nc3ccc(N4CCN(C)CC4)cc3)nc2n(C(C)C)c1=O [Example 70, 3-Allyl-1-isopropyl-7-[4-(4-methylpiperazin-1-yl)phenylamino]-1H-pyrimido[4,5-d]pyrimidine-2,4-dione] |  |  |  | 0% | 176 to 177 °C |  |
| CN1C(=O)NCc2cnc(Nc3ccc(-n4cccn4)cc3)nc21.O=C(O)C(F)(F)F [Example 31, 1-Methyl-7-[4-(pyrazol-1-yl)phenylamino]-3,4-dihydro-pyrimido[4,5-d]pyrimidin-2(1H)-one; Compound with trifluoroacetic acid] |  |  |  | 21% | 250 to 251 °C (dec.) | inhibition at 40 µM [4]: 18% |
| C=CCn1c(=O)c2cnc(Nc3ccc(OCCN(CC)CC)cc3)nc2n(C(C)C)c1=O [Example 72, 3-Allyl-7-[4-(2-Diethylaminoethoxy)phenylamino]-1-isopropyl-1H-pyrimido[4,5-d]pyrimidine-2,4-dione] |  |  |  | 0% | 90 to 96 °C |  |
| CC(C)n1c(=O)ncc2cnc(Nc3ccc(N4CCN(C)CC4)cc3)nc21 [Example 40, 1-Isopropyl-7-[4-(4-methylpiperazin-1-yl)phenylamino]pyrimido[4,5-d]pyrimidin-2(1H)-one] |  |  |  |  | 228 to 229 °C (dec.) | inhibition at 40 µM [2]: 42% |
| CN(C)C1CCN(c2ccc(Nc3ncc4c(n3)N(C3CCCC3)C(=O)NC4)cc2)CC1 [Example 17, 1-Cyclopentyl-7-{4-[4-(dimethylamino)piperidin-1-yl]phenylamino}-3,4-dihydro-pyrimido[4,5-d]pyrimidin-2(1H)-one] | 3550 nM | 20200 nM | 1310 nM |  | > 200 °C (dec.) | IC50 [3]: 370 nM; IC50 [4]: 310 nM; IC50 [6]: 320 nM |
| CCNc1nc(SC)ncc1C=Nc1cc(OC)cc(OC)c1Cl [Example 61, {5-[(2-Chloro-3,5-dimethoxy-phenylimino)-methyl]-2-methylsulfanyl-pyrimidin-4-yl}-ethyl-amine] |  |  |  |  | 196.5 to 198.5 °C |  |
